Laboratory results as given in the supplement of paper PMC10307832.

Columns and labels:
Assay in all cases: relative viability (nuclei count vs DMSO), 5 days (fraction); higher = more cells survive
[1] = compound: COc1cccc2c1C(=O)c1c(O)c3c(c(O)c1C2=O)C[C@@](O)(C(=O)CO)C[C@@H]3O[C@H]1C[C@H](N)[C@H](O)[C@H](C)O1 [Doxorubicin] + CCNC(=O)c1noc(-c2cc(C(C)C)c(O)cc2O)c1-c1ccc(CN2CCOCC2)cc1 [Luminespib] (partner 0.01 µM)
Method in brief: (§1)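 A single step with final 0.05% Triton X-100, 1% formaldehyde and 1 ug/ml Hoechst fixed the cells and stained nuclei 5 days after treatment. Lung cancer cell lines in 1536-well plates had been treated by pin tool the day after seeding with one drug alone or a fixed anchor-drug dose plus five library-drug doses (not always all listed) in √10 steps, and nuclei were counted on 4× images. Relative viability is the ratio of nuclei in treated wells to nuclei in vehicle wells, taken as the median of duplicate plates.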

[2] = compound: COc1cccc2c1C(=O)c1c(O)c3c(c(O)c1C2=O)C[C@@](O)(C(=O)CO)C[C@@H]3O[C@H]1C[C@H](N)[C@H](O)[C@H](C)O1 [Doxorubicin] + Cc1nc(NC(=O)N2CCC[C@H]2C(N)=O)sc1-c1ccnc(C(C)(C)C(F)(F)F)c1 [Alpelisib] (partner 2 µM)
Method in brief: as §1

[3] = compound: COC1=C(C=C(C=C1)C2=CC3=NC=CN3C(=N2)NC4=C(C=CC=N4)C(=O)N)OC [BAY61-3606] + N=C(N)NC(=N)NCCc1ccccc1 [Phenformin] (partner 250 µM)
Method in brief: as §1

[4] = compound: COC1=C(C=C(C=C1)C2=CC3=NC=CN3C(=N2)NC4=C(C=CC=N4)C(=O)N)OC [BAY61-3606] + CC1(C)CCC(c2ccc(Cl)cc2)=C(CN2CCN(c3ccc(C(=O)NS(=O)(=O)c4ccc(N[C@H](CCN5CCOCC5)CSc5ccccc5)c(S(=O)(=O)C(F)(F)F)c4)cc3)CC2)C1 [Navitoclax] (partner 0.5 µM)
Method in brief: as §1

Cell Line | relative viability ([1]; first compound 0.001 µM) | relative viability ([1]; first compound 0.003162 µM) | relative viability ([1]; first compound 0.01 µM) | relative viability ([1]; first compound 0.03162 µM) | relative viability ([1]; first compound 0.1 µM) | relative viability ([2]; first compound 0.001 µM) | relative viability ([2]; first compound 0.003162 µM) | relative viability ([2]; first compound 0.01 µM) | relative viability ([2]; first compound 0.03162 µM) | relative viability ([2]; first compound 0.1 µM) | relative viability ([3]; first compound 0.02 µM) | relative viability ([3]; first compound 0.06325 µM) | relative viability ([3]; first compound 0.2 µM) | relative viability ([3]; first compound 0.6325 µM) | relative viability ([3]; first compound 2 µM) | relative viability ([4]; first compound 0.02 µM) | relative viability ([4]; first compound 0.06325 µM) | relative viability ([4]; first compound 0.2 µM) | relative viability ([4]; first compound 0.6325 µM) | relative viability ([4]; first compound 2 µM)
201T | 1.03 | 1.08 | 1.04 | 1.01 | 1.11 | 1.02 | 0.969 | 0.985 | 0.969 | 1.02 | 0.461 | 0.425 | 0.449 | 0.511 | 0.444 | 1.22 | 1.2 | 1.23 | 1.21 | 1.3
A549 |  |  |  |  |  | 0.799 | 0.676 | 0.48 | 0.132 | 0.0649 | 0.17 | 0.0908 | 0.0972 | 0.212 | 0.166 | 1.24 | 1.14 | 1.33 | 1.22 | 0.916
A-427 | 0.803 | 0.784 | 0.866 | 0.656 | 0.64 | 1.11 | 1.09 | 1.09 | 1.09 | 1.15 | 0.417 | 0.235 | 0.287 | 0.315 | 0.257 | 1.03 | 0.983 | 0.962 | 1.06 | 0.914
ABC-1 | 0.484 | 0.418 | 0.347 | 0.339 | 0.213 | 1.04 | 0.922 | 1.02 | 0.504 | 0.361 | 0.254 | 0.269 | 0.219 | 0.227 | 0.284 |  |  |  |  | 
BEN | 0.368 | 0.39 | 0.317 | 0.277 | 0.283 | 1.09 | 1.04 | 0.913 | 0.656 | 0.886 | 0.272 | 0.257 | 0.294 | 0.284 | 0.255 | 0.0718 | 0.0633 | 0.0644 | 0.0773 | 0.0651
CAL-12T | 0.523 | 0.394 | 0.555 | 0.289 | 0.239 | 1.23 | 1.41 | 0.587 | 0.26 | 0.142 | 0.559 | 0.592 | 0.502 | 0.557 | 0.266 | 1.23 | 1.42 | 1.2 | 1.27 | 0.67
COR-L23 | 0.678 | 0.637 | 0.567 | 0.163 | 0.147 | 0.826 | 0.806 | 0.866 | 0.428 | 0.128 | 0.474 | 0.438 | 0.495 | 0.466 | 0.352 | 1.06 | 1.1 | 1.02 | 1.11 | 0.813
COR-L 105 | 0.678 | 0.754 | 0.691 | 0.595 | 0.363 | 0.967 | 1.13 | 0.928 | 0.551 | 0.312 | 0.494 | 0.506 | 0.435 | 0.413 | 0.323 | 0.79 | 0.714 | 0.624 | 0.812 | 0.409
Calu-6 |  |  |  |  |  | 1.09 | 1.01 | 0.866 | 0.529 | 0.295 |  |  |  |  |  | 0.84 | 0.981 | 0.799 | 0.788 | 0.607
ChaGo-K-1 | 0.614 | 0.592 | 0.651 | 0.52 | 0.54 |  |  |  |  |  | 0.513 | 0.451 | 0.515 | 0.462 | 0.52 | 1.18 | 0.822 | 0.946 | 0.666 | 0.983
EBC-1 |  |  |  |  |  | 0.835 | 0.921 | 0.823 | 0.61 | 0.405 |  |  |  |  |  | 0.421 | 0.362 | 0.525 | 0.504 | 0.281
EKVX | 0.784 | 1.02 | 0.828 | 0.847 | 0.834 | 0.968 | 0.971 | 0.797 | 0.803 | 0.861 | 0.239 | 0.228 | 0.221 | 0.222 | 0.234 | 1.04 | 1.04 | 0.884 | 0.959 | 0.938
EMC-BAC-2 | 1.25 | 1.18 | 1.04 | 0.551 | 0.425 | 0.799 | 0.88 | 0.679 | 0.734 | 0.717 | 0.582 | 0.509 | 0.485 | 0.521 | 0.444 | 1.21 | 1.21 | 1.16 | 1.24 | 1.19
EPLC-272H | 0.209 | 0.262 | 0.339 | 0.259 | 0.253 | 0.898 | 1.04 | 0.913 | 0.902 | 1.02 | 0.254 | 0.294 | 0.312 | 0.303 | 0.228 | 1.1 | 1 | 0.934 | 1.19 | 1.19
H3255 | 0.982 | 0.84 | 0.841 | 0.75 | 0.829 | 0.698 | 0.656 | 0.562 | 0.58 | 0.404 | 0.351 | 0.342 | 0.371 | 0.399 | 0.342 | 0.555 | 0.54 | 0.502 | 0.494 | 0.609
HARA | 0.644 | 1.1 | 0.696 | 0.641 | 0.325 | 0.816 | 0.845 | 0.76 | 0.782 | 0.812 | 0.433 | 0.35 | 0.432 | 0.494 | 0.369 | 1.2 | 1.12 | 1.16 | 1.1 | 1.02
HCC-15 |  | 0.304 | 0.312 | 0.231 | 0.222 | 0.85 | 0.939 | 0.633 | 0.727 | 0.573 | 0.474 | 0.457 | 0.458 | 0.474 | 0.454 | 0.796 | 0.703 | 0.691 | 0.702 | 0.683
